Experimental data: patent EP0555116B1, “Compositions based on antiseptics and their applications” (HUTCHINSON, priority 1992, dated 1993)

How the values were obtained:
Test in all cases: Growth inhibition test (DGHM, Essai 2, Tables A-C), 72 h at 37°C; non/A/B/C = without or with inactivating substances A, B, C
[1] = test system: E. coli ATCC 11229; assay type: cell-based, Escherichia coli
Description: (§1) Un autre essai a été réalisé à partir des solutions suivantes : • 100 ml d'une solution à 0,1 % de digluconate de chlorhexidine (pH 6) et • 100 ml d'une solution à 0,1 % de Bardac 22®.
(§2) L'activité de ces solutions, seules ou en combinaison a été plus particulièrement testée vis-à-vis de Staphylococcus aureus ATCC 6538, Escherichia coli ATCC 11229 et Candida albicans ATCC 10231.
(§3) Les tests ont été réalisés conformément au protocole décrit dans le Chapitre I/2.1 et 2.2 de Richtlinien für die Prüfung und Bewertung chemischer Desinfektionsverfahren der DGHM, Stand 1.1., 1981).
(§4) Les Tableaux A, B et C illustrent respectivement l'activité bactéricide et fongicide d'une solution aqueuse à 0,1 % de digluconate de chlorhexidine, d'une solution aqueuse à 0,1 % de Bardac 22® et d'un mélange à part égale des deux composés. Les protocoles dont ces Tableaux illustrent les résultats comprennent une incubation de 72 heures à 37°C et l'utilisation, comme témoins, des substances inactivantes suivantes : A : Tween® 80 3 % + lécithine 0,3 % + cystéine 0,1 %; B : Tween® 80 3 % + saponine 3 % + cystéine 0,1 % + histidine 0,1 %; C : Tween® 80 3 % + lécithine 0,3 % + histidine 0,1 % + thiosulfate de sodium 0,5 %.
(§5) Dans ces Tableaux, le signe "+" indique une croissance et le signe "-" l'absence de croissance.

[2] = test system: Candida albicans ATCC 1031; assay type: cell-based
Description: Un autre essai a été réalisé à partir des solutions suivantes : • 100 ml d'une solution à 0,1 % de digluconate de chlorhexidine (pH 6) et • 100 ml d'une solution à 0,1 % de Bardac 22®. […]
as §3, §4, §5

[3] = test system: S. aureus ATCC 6538; assay type: cell-based, Staphylococcus aureus
Description: as §1, §2, §3, §4, §5

CCCCCCCCCC[N+](C)(C)CCCCCCCCCC [Bardac®, chlorure de didécyldiméthylammonium]
croissance ([1]; Conc. 0,1 % (vol/vol), A): + | croissance ([1]; Conc. 0,1 % (vol/vol), B): + | croissance ([1]; Conc. 0,1 % (vol/vol), C): + | croissance ([1]; Conc. 0,1 % (vol/vol), non): + | croissance ([1]; Conc. 0,05 % (vol/vol), A): + | croissance ([1]; Conc. 0,5 % (vol/vol), A): + | croissance ([1]; Conc. 0,05 % (vol/vol), B): + | croissance ([1]; Conc. 0,5 % (vol/vol), B): + | croissance ([1]; Conc. 0,05 % (vol/vol), C): + | croissance ([1]; Conc. 0,5 % (vol/vol), C): + | croissance ([1]; Conc. 0,05 % (vol/vol), non): + | croissance ([1]; Conc. 0,5 % (vol/vol), non): - | croissance ([1]; Conc. 1,0 % (vol/vol), A): + | croissance ([1]; Conc. 1,0 % (vol/vol), B): + | croissance ([1]; Conc. 1,0 % (vol/vol), C): + | croissance ([1]; Conc. 1,0 % (vol/vol), non): - | croissance ([1]; Conc. 0,00625 % (vol/vol), A): + | croissance ([1]; Conc. 0,00625 % (vol/vol), B): + | croissance ([1]; Conc. 0,00625 % (vol/vol), C): + | croissance ([1]; Conc. 0,00625 % (vol/vol), non): + | croissance ([1]; Conc. 0,0125 % (vol/vol), A): + | croissance ([1]; Conc. 0,0125 % (vol/vol), B): + | croissance ([1]; Conc. 0,0125 % (vol/vol), C): + | croissance ([1]; Conc. 0,0125 % (vol/vol), non): + | croissance ([1]; Conc. 0,025 % (vol/vol), A): + | croissance ([1]; Conc. 0,025 % (vol/vol), B): + | croissance ([1]; Conc. 0,025 % (vol/vol), C): + | croissance ([1]; Conc. 0,025 % (vol/vol), non): + | concentration en substance active inhibant la croissance ([1]; antiseptique seul): 0,0005% | croissance ([2]; Conc. 0,1 % (vol/vol), A): + | croissance ([2]; Conc. 0,1 % (vol/vol), B): + | croissance ([2]; Conc. 0,1 % (vol/vol), C): + | croissance ([2]; Conc. 0,1 % (vol/vol), non): - | croissance ([2]; Conc. 0,05 % (vol/vol), A): + | croissance ([2]; Conc. 0,5 % (vol/vol), A): + | croissance ([2]; Conc. 0,05 % (vol/vol), B): + | croissance ([2]; Conc. 0,5 % (vol/vol), B): + | croissance ([2]; Conc. 0,05 % (vol/vol), C): + | croissance ([2]; Conc. 0,5 % (vol/vol), C): + | croissance ([2]; Conc. 0,05 % (vol/vol), non): + | croissance ([2]; Conc. 0,5 % (vol/vol), non): - | croissance ([2]; Conc. 1,0 % (vol/vol), A): + | croissance ([2]; Conc. 1,0 % (vol/vol), B): + | croissance ([2]; Conc. 1,0 % (vol/vol), C): + | croissance ([2]; Conc. 1,0 % (vol/vol), non): - | croissance ([2]; Conc. 0,00625 % (vol/vol), A): + | croissance ([2]; Conc. 0,00625 % (vol/vol), B): + | croissance ([2]; Conc. 0,00625 % (vol/vol), C): + | croissance ([2]; Conc. 0,00625 % (vol/vol), non): + | croissance ([2]; Conc. 0,0125 % (vol/vol), A): + | croissance ([2]; Conc. 0,0125 % (vol/vol), B): + | croissance ([2]; Conc. 0,0125 % (vol/vol), C): + | croissance ([2]; Conc. 0,0125 % (vol/vol), non): + | croissance ([2]; Conc. 0,025 % (vol/vol), A): + | croissance ([2]; Conc. 0,025 % (vol/vol), B): + | croissance ([2]; Conc. 0,025 % (vol/vol), C): + | croissance ([2]; Conc. 0,025 % (vol/vol), non): + | concentration en substance active inhibant la croissance ([2]; antiseptique seul): 0,0001% | croissance ([3]; Conc. 0,1 % (vol/vol), A): + | croissance ([3]; Conc. 0,1 % (vol/vol), B): + | croissance ([3]; Conc. 0,1 % (vol/vol), C): + | croissance ([3]; Conc. 0,1 % (vol/vol), non): - | croissance ([3]; Conc. 0,05 % (vol/vol), A): + | croissance ([3]; Conc. 0,5 % (vol/vol), A): + | croissance ([3]; Conc. 0,05 % (vol/vol), B): + | croissance ([3]; Conc. 0,5 % (vol/vol), B): + | croissance ([3]; Conc. 0,05 % (vol/vol), C): + | croissance ([3]; Conc. 0,5 % (vol/vol), C): + | croissance ([3]; Conc. 0,05 % (vol/vol), non): + | croissance ([3]; Conc. 0,5 % (vol/vol), non): - | croissance ([3]; Conc. 1,0 % (vol/vol), A): + | croissance ([3]; Conc. 1,0 % (vol/vol), B): + | croissance ([3]; Conc. 1,0 % (vol/vol), C): + | croissance ([3]; Conc. 1,0 % (vol/vol), non): - | croissance ([3]; Conc. 0,00625 % (vol/vol), A): + | croissance ([3]; Conc. 0,00625 % (vol/vol), B): + | croissance ([3]; Conc. 0,00625 % (vol/vol), C): + | croissance ([3]; Conc. 0,00625 % (vol/vol), non): + | croissance ([3]; Conc. 0,0125 % (vol/vol), A): + | croissance ([3]; Conc. 0,0125 % (vol/vol), B): + | croissance ([3]; Conc. 0,0125 % (vol/vol), C): + | croissance ([3]; Conc. 0,0125 % (vol/vol), non): + | croissance ([3]; Conc. 0,025 % (vol/vol), A): + | croissance ([3]; Conc. 0,025 % (vol/vol), B): + | croissance ([3]; Conc. 0,025 % (vol/vol), C): + | croissance ([3]; Conc. 0,025 % (vol/vol), non): + | concentration en substance active inhibant la croissance ([3]; antiseptique seul): 0,0001%
